Results from PubChem BioAssay AID256 (DTP/NCI, 2004).
Toxic doses and inconclusive results are not listed. How the source made its calls: active means survival T/C of 150% or more; inactive means T/C below 125% in these data.

Test system: CD2F1 mice, L1210 leukemia ip, survival T/C
Assay: NCI In Vivo Anticancer Drug Screen. Data for tumor model L1210 Leukemia (intraperitoneal) in CD2F1 (CDF1) mice
Settings: endpoint: mean survival time, higher = longer survival
How it was run: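 Activity against a transplanted murine tumor was judged by comparing the compound group with a vehicle group. The outcome in the treated animals was divided by that in the controls.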

[1] = dose: 100.0 mg/kg/injection, schedule: Q04DX003 (ip), vehicle: saline with Tween-80
[2] = dose: 200.0 mg/kg/injection, schedule: Q04DX003 (ip), vehicle: saline with Tween-80
[3] = dose: 400.0 mg/kg/injection, schedule: Q04DX003 (ip), vehicle: saline with Tween-80

Measured: T/C

Cc1ccc(C2(C(=O)O)CC2)cc1
inactive: [1] 98 % of control | [2] 98 % of control | [3] 96 % of control

CC(Cc1ccccc1)NC=O (configuration not stated)
inactive: dose: 50.0 mg/kg/injection, schedule: Q01DX009 (ip), vehicle: saline with Tween-80 97 % of control | dose: 100.0 mg/kg/injection, schedule: Q01DX009 (ip), vehicle: saline with Tween-80 97 % of control

O=C(NCCO)c1cccnc1
inactive: dose: 75.0 mg/kg/injection, schedule: Q04DX003 (ip), vehicle: saline sonified 103 % of control | dose: 150.0 mg/kg/injection, schedule: Q04DX003 (ip), vehicle: saline sonified 97 % of control | dose: 300.0 mg/kg/injection, schedule: Q04DX003 (ip), vehicle: saline sonified 97 % of control | dose: 600.0 mg/kg/injection, schedule: Q04DX003 (ip), vehicle: saline sonified 102 % of control

Nc1nc(N)c2ncn(Cc3ccccc3)c2n1
inactive: [1] 98 % of control | [2] 93 % of control | [3] 100 % of control
